From US11149033B2, “Heteroaryl compound, enantiomer, diastereomer or pharmaceutically acceptable salt thereof, and antiviral composition containing same as active ingredient” (priority 2016, dated 2021)
Where two headings read alike, the source gives them in different places.

How the values were obtained:
[1] = system: A/California/07/2009 (H1N1); assay: Antiviral activity (drug efficacy evaluation by concentration) against A/California/07/2009 (H1N1); assay type: cell-based, A type influenza virus; settings: Influenza A virus
B/Florida/04/2006 = assay: Antiviral activity (drug efficacy evaluation by concentration) against B/Florida/04/2006; assay type: cell-based, B type influenza virus
A/Perth/16/2009 (H3N2) = assay: Antiviral activity (drug efficacy evaluation by concentration) against A/Perth/16/2009 (H3N2); assay type: cell-based, A type influenza virus; settings: Influenza A virus
[2] = H1N1, A/California/07/2009 (H1N1), read-out: EC50 A/California/07/2009 (H1N1)
[3] = read-out: EC50 B/Florida/04/2006, B/Florida/04/2006
[4] = CC50 B/Florida/04/2006, cytotoxicity in the B/Florida/04/2006 assay
[5] = H3N2, A/Perth/16/2009 (H3N2), read-out: EC50 A/Perth/16/2009 (H3N2)
[6] = CC50, third EC50/CC50 column pair (c7), beside the EC50 of c6

| Structure (SMILES) | EC50 [1, 2] | EC50 (B/Florida/04/2006; [3]) | CC50 (in vitro; [4]) | melting point | EC50 (A/Perth/16/2009 (H3N2); [5]) | EC50 ([1]; H1N1, read-out: EC50) | EC50 (B/Florida/04/2006) | CC50 (in vitro; CC50, beside the EC50 of c2) | CC50 (in vitro; CC50, beside the EC50 of c4) | CC50 (in vitro; [6]) | EC50 (A/Perth/16/2009 (H3N2); H3N2, read-out: EC50) |
| --- | --- | --- | --- | --- | --- | --- | --- | --- | --- | --- | --- |
| Cc1nn(Cc2nnc(SCc3ccc(-c4ccccc4)cc3)o2)c(C)c1Br [Compound 2, 2-(([1,1′-biphenyl]-4-ylmethyl)thio)-5-((4-bromo-3,5-dimethyl-1H-pyrazol-1-yl)methyl)-1,3,4-oxadiazole] | 47.5 µM | > 50 µM | > 50 µM | 135.9 °C | 46.7 µM | – | – | – | – | – | – |
| Cc1nn(Cc2nnc(SCc3cccc(-c4ccccc4)c3)o2)c(C)c1Br [Compound 6, 2-(([1,1′-biphenyl]-3-ylmethyl)thio)-5-((4-bromo-3,5-dimethyl-1H-pyrazol-1-yl)methyl)-1,3,4-oxadiazole] | 2.91 µM | 3 µM | > 50 µM | 90.3 °C | 2.74 µM | – | – | – | – | – | – |
| Cc1nn(Cc2nnc(SCc3cccc4ccccc34)o2)c(C)c1Br [Compound 8, 2-((4-bromo-3,5-dimethyl-1H-pyrazol-1-yl)methyl)-5-((naphthalen-1-ylmethyl)thio)-1,3,4-oxadiazole] | 6.94 µM | 7.48 µM | > 50 µM | 112.1 °C | 10.5 µM | – | – | – | – | – | – |
| COc1ccccc1CSc1nnc(Cn2nc(C)c(Br)c2C)o1 [Compound 10, 2-((4-bromo-3,5-dimethyl-1H-pyrazol-1-yl)methyl)-5-((2-methoxybenzyl)thio)-1,3,4-oxadiazole] | 16.8 µM | 15.5 µM | > 50 µM | 87.3 °C | 18.4 µM | – | – | – | – | – | – |
| Cc1nn(Cc2nnc([S+]([O-])Cc3ccccc3-c3ccccc3)o2)c(C)c1Br (stereo not shown) [Compound 12, 2-(([1,1′-biphenyl]-2-ylmethyl)sulfinyl)-5-((4-bromo-3,5-dimethyl-1H-pyrazol-1-yl)methyl)-1,3,4-oxadiazole] | 2.51 µM | 2.61 µM | 7.81 µM | 48.2 °C | 3.26 µM | – | – | – | – | – | – |
| CC(=O)c1ccccc1CSc1nnc(Cn2nc(C)c(Br)c2C)o1 [Compound 28, 1-(2-(((5-((4-bromo-3,5-dimethyl-1H-pyrazol-1-yl)methyl)-1,3,4-oxadiazol-2-yl)thio)methyl)phenyl)ethan-1-one] | > 50 µM | > 50 µM | > 50 µM | 63.7 °C | > 50 µM | – | – | – | – | – | – |
| Cc1nn(Cc2nnc(SCc3ccccc3Oc3ccccc3)o2)c(C)c1Br [Compound 29, 2-((4-bromo-3,5-dimethyl-1H-pyrazol-1-yl)methyl)-5-((2-phenoxybenzyl)thio)-1,3,4-oxadiazole] | 1.2 µM | 1.99 µM | 5.23 µM | 92.3 °C | 1.4 µM | – | – | – | – | – | – |
| Cc1ccc(-c2ccccc2CSc2nnc(Cn3nc(C)c(Br)c3C)o2)cc1 [Compound 32, 2-((4-bromo-3,5-dimethyl-1H-pyrazol-1-yl)methyl)-5-(((4′-methyl-[1,1′-biphenyl]-2-yl)methyl)thio)-1,3,4-oxadiazole] | 0.6 µM | 1.38 µM | 7.32 µM | 102.3 °C | 0.5 µM | – | – | – | – | – | – |
| Cc1nn(Cc2nnc(SCc3ccccc3-c3ccc(Cl)cc3)o2)c(C)c1Br [Compound 33, 2-((4-bromo-3,5-dimethyl-1H-pyrazol-1-yl)methyl)-5-(((4′-chloro-[1,1′-biphenyl]-2-yl)methyl)thio)-1,3,4-oxadiazole] | 0.6 µM | 1.46 µM | 6.28 µM | 84.7 °C | 0.5 µM | – | – | – | – | – | – |
| Cc1nn(Cc2nnc(SCc3ccccc3-c3ccsc3)o2)c(C)c1Br [Compound 35, 2-((4-bromo-3,5-dimethyl-1H-pyrazol-1-yl)methyl)-5-((2-(thiophen-3-yl)benzyl)thio)-1,3,4-oxadiazole] | 0.7 µM | 1.88 µM | > 50 µM | 86.9 °C | 0.8 µM | – | – | – | – | – | – |
| COC(=O)c1ccccc1CSc1nnc(Cn2nc(C)c(Br)c2C)o1 [Compound 37, methyl 2-(((5-((4-bromo-3,5-dimethyl-1H-pyrazol-1-yl)methyl)-1,3,4-oxadiazol-2-yl)thio)methyl)benzoate] | 37.8 µM | > 50 µM | > 50 µM | 123.6 °C | 41.8 µM | – | – | – | – | – | – |
| Brc1ccc(-c2nnc(SCc3ccccc3-c3ccccc3)o2)cc1 [Compound 42, 2-(([1,1′-biphenyl]-2-ylmethyl)thio)-5-(4-bromophenyl)-1,3,4-oxadiazole] | 1.62 µM | 2.92 µM | 14.8 µM | 120.5 °C | 2.33 µM | – | – | – | – | – | – |
| Cc1ccccc1CSc1ccc(C(=O)n2nc(C)c(Br)c2C)o1 [Compound 48, (4-bromo-3,5-dimethyl-1H-pyrazol-1-yl)(5-((2-methylbenzyl)thio)furan-2-yl)methanone] | 4.88 µM | 23.4 µM | 9.54 µM | 101.2 °C | 11.3 µM | – | – | – | – | – | – |
| O=C(NCc1nnc(SCc2ccccc2-c2ccccc2)o1)c1ccc(Br)cc1 [Compound 51, N-((5-(([1,1′-biphenyl]-2-ylmethyl)thio)-1,3,4-oxadiazol-2-yl)methyl)-4-bromobenzamide] | 4.01 µM | 6.02 µM | 28.6 µM | 135.4 °C | 5.04 µM | – | – | – | – | – | – |
| CC(C)c1ccc(Cc2nnc(/C=C/c3ccccc3C(C)C)o2)cc1 [Compound 133, 2-(4-isopropylbenzyl)-5-(2-isopropylstyryl)-1,3,4-oxadiazole] | – | – | – | – | – | 2.66 µM | 1.97 µM | > 50 µM | > 50 µM | > 50 µM | 1.4 µM |
| Cc1cccc(C)c1CCc1nnc(Cc2ccc(Br)cc2)o1 [Compound 135, 2-(4-bromobenzyl)-5-(2,6-dimethylphenethyl)-1,3,4-oxadiazole] | – | – | – | – | – | 6.4 µM | 5.63 µM | > 50 µM | > 50 µM | > 50 µM | 4.38 µM |
| Cc1ccccc1CC(C)c1nnc(Cc2ccc(Br)cc2)o1 (stereo not shown) [Compound 140, 2-(4-bromobenzyl)-5-(1-(o-tolyl)propan-2-yl)-1,3,4-oxadiazole] | – | – | – | – | – | 18.2 µM | 14.1 µM | > 50 µM | > 50 µM | > 50 µM | 19.9 µM |
| C/C(=C\c1ccccc1C)c1nnc(Cc2ccc(Br)cc2)o1 [Compound 144, 2-(4-bromobenzyl)-5-(1-(o-tolyl)prop-1-en-2-yl)-1,3,4-oxadiazole] | – | – | – | – | – | 48.7 µM | > 50 µM | > 50 µM | > 50 µM | > 50 µM | 49.3 µM |
| Cc1ccc(Cc2nnc(/C=C/c3ccccc3C(C)C)o2)cc1C [Compound 146, 2-(3,4-dimethylbenzyl)-5-(2-isopropylstyryl)-1,3,4-oxadiazole] | – | – | – | – | – | 5.27 µM | 3.07 µM | 24.1 µM | > 50 µM | > 50 µM | 3.74 µM |
| CC(C)c1ccccc1/C=C/c1nnc(C(C)c2ccccc2)o1 (stereo not shown) [Compound 147, 2-(2-isopropylstyryl)-5-(1-phenylethyl)-1,3,4-oxadiazole] | – | – | – | – | – | 6 µM | 4.4 µM | > 50 µM | > 50 µM | > 50 µM | 6 µM |
| CC(C)Cc1ccc(C(C)c2nnc(/C=C/c3ccccc3C(C)C)o2)cc1 (stereo not shown) [Compound 148, 2-(1-(4-isobutylphenyl)ethyl)-5-(2-isopropylstyryl)-1,3,4-oxadiazole] | – | – | – | – | – | 39.8 µM | 45.1 µM | > 50 µM | > 50 µM | > 50 µM | 38.9 µM |
| COc1ccccc1/C=C/c1nnc(Cc2ccc(Br)cc2)o1 [Compound 163, 2-(4-bromobenzyl)-5-(2-methoxystyryl)-1,3,4-oxadiazole] | – | – | – | 106.3 °C | – | 32.3 µM | > 50 µM | > 50 µM | > 50 µM | > 50 µM | – |
| CC(C)c1ccccc1/C=C/c1nnc(Cc2ccc(Br)c(F)c2)o1 [Compound 164, 2-(4-bromo-3-fluorobenzyl)-5-(2-isopropylstyryl)-1,3,4-oxadiazole] | – | – | – | – | – | 5.16 µM | 8.35 µM | > 50 µM | > 50 µM | > 50 µM | 4.32 µM |
| Cc1ccc(F)c(Cc2nnc(/C=C/c3ccccc3C(C)C)o2)c1 [Compound 173, 2-(2-fluoro-5-methylbenzyl)-5-(2-isopropylstyryl)-1,3,4-oxadiazole] | – | – | – | – | – | 1.77 µM | 1.91 µM | 13.5 µM | 12.6 µM | 15.8 µM | 1.71 µM |
| Cc1ccc(/C=C/c2nnc(Cc3cccc(Br)c3)o2)c(Cl)c1 [Compound 195, 2-(3-bromobenzyl)-5-(2-chloro-4-methylstyryl)-1,3,4-oxadiazole] | – | – | – | – | – | 6.14 µM | 5.74 µM | > 50 µM | > 50 µM | > 50 µM | 5.79 µM |
| Fc1ccc(/C=C/c2nnc(Cc3cncc(Br)c3)o2)c(Cl)c1 [Compound 205, (E)-2-((5-bromopyridin-3-yl)methyl)-5-(2-chloro-4-fluorostyryl)-1,3,4-oxadiazole] | – | – | – | – | – | 43 µM | 34.9 µM | > 50 µM | > 50 µM | > 50 µM | 21.6 µM |
| COc1ccccc1/C=C/c1nnc(Cc2cccc(Br)c2)o1 [Compound 210, 2-(3-bromobenzyl)-5-(2-methoxystyryl)-1,3,4-oxadiazole] | – | – | – | – | – | 47.3 µM | 36.2 µM | 48.1 µM | 48.1 µM | 46.8 µM | 23.5 µM |
